In patent US20210196731A1, “COMPOSITIONS AND METHODS FOR TREATING OCULAR INFLAMMATION AND OCULAR SCARRING” (priority 2018, published 2021):
“Also recorded” adds a separate entry of the source.

Experiments:
[1] = tested on: αSMA; test: Cellular response to individual exogenous ASA-triggered lipid mediators (αSMA western blot); type: cell-based, human; details: 48 hrs
Procedure: Cells were lysed in lysis buffer (PhosphoSafe Extraction Reagent, Novagen) containing a protease inhibitor cocktail (P2714, Sigma-Aldrich). Crude protein lysate was quantified using a Pierce BCA protein assay kit (ThermoFisher, Mississauga, ON) and 10 ug from each sample was resolved using a Novex WedgeWell 4-20% tris-glycine gel (Invitrogen). Using an iBlot Gel Transfer Device (IB1001, Invitrogen), the separated protein was transferred to a nitrocellulose membrane (1B301001, iBlot Transfer Stack, Invitrogen) which was then blocked with 5% (w/v) bovine serum albumin (Sigma-Aldrich) in Tris buffered saline (TBST) for 1 hour at room temperature. The membranes were incubated overnight at 4° C. with primary antibody diluted in TBST containing 5% BSA (w/vol). Primary antibodies used were as follows: collagen 1 (ab138492, Abcam), αSMA (ab5694, Abcam), MMP9 (ab38898, Abcam), PPARγ (sc-7273, SantaCruz Biotechnology), SMAD2/3 (ab63672, Abcam), pSMAD2/3 (ab63399, Abcam) and GAPDH (sc-47724, Santa Cruz Biotechnology, Inc.). After incubation with primary antibodies, the blots were washed and hybridized with 1:3000 (v/v) dilutions of the appropriate goat anti-rabbit or anti-mouse IgG conjugated with horseradish peroxidase ([…], respectively, both from Bio-Rad Laboratories, Inc.). Visualization was accomplished by applying WesternBright Quantum chemiluminescent reagent (Advansta, Inc.), with GAPDH used as a protein loading control. Imaging and relative densiometric quantification was accomplished using a ChemiDoc MP System (Bio-Rad Laboratories, Inc.) connected to Image Lab (Version 6, Bio-Rad Laboratories, Inc.).
From the lipid mediator secretion assays, we see that exposure to ASA or APHS±a PLA2-a results in the generation of significant quantities of pro-resolving products 5-HETE, 11-HETE, 15-HETE and/or 17-OHDHA. The aim of this experiment was to assess the effects (both individually and in combination) of these lipid mediators at mitigating the induction of αSMA by aqueous humor growth factors. To this end, multiple primary HTCF cell lines were cultured in DMEM w/10% FBS in 6-well culture plates, incubated at 37 C and 5% CO2, until 80% confluent. The culture media was removed, wells washed with PBS, and then fresh DMEM w/0% FBS was added. After 24 hrs of serum starvation, one of 14 experimental treatments were applied for 48 hrs: 1) vehicle control (DMEM w/0% FBS), and 2) AHGFs (DMEM w/0% FBS and 2 ng/ml each of TGFB1, TGFB2, VEGF, CCN2), and 3-5) AHGFs/5-HETE (DMEM w/0% FBS, 2 ng/ml each of TGFB1, TGFB2, VEGF, CCN2, and 10, 100, or 1000 nM of 5-hydroxyeicosatetraenoic acid), and 6-8) AHGFs/11-HETE (DMEM w/0% FBS, 2 ng/ml each of TGFB1, TGFB2, VEGF, CCN2, and 10, 100, or 1000 nM of 11-hydroxyeicosatetraenoic acid), and 9-11) AHGFs/15-HETE (DMEM w/0% FBS, 2 ng/ml each of TGFB1, TGFB2, VEGF, CCN2, and 10, 100, or 1000 nM of 15-hydroxyeicosatetraenoic acid), and 12-14) AHGFs/17-OHDHA (DMEM w/0% FBS, 2 ng/ml each of TGFB1, TGFB2, VEGF, CCN2, and 10, 100, or 1000 nM of 17-hydroxy-docosahexaenoic acid). After 48 hrs exposure cellular protein lysate was collected and assessed by western blot with primary antibodies for αSMA and GAPDH, as described previously.

[2] = tested on: HTCFs; test: Collagen Contraction Assay II (dose dependence); type: cell-based, human; details: gentamicin alone, 100-1000 μg/ml, four days (FIG. 8A)
Procedure: (§1) The cell-collagen solution was pipetted gently to ensure homogenous distribution of HTCFs while avoiding the production of air bubbles, then 500 ul were pipetted into each well of a 24-well tray. Collagen constructs were allowed to polymerize at 37 C for 45 minutes before adding low serum culture media containing DMEM, 2% Fetal Bovine Serum (FBS), 1% penicillin/streptomycin (P/S).
Tension was allowed to build up within the tethered matrix at 37 C and 5% CO2 for 72 hours before a sterile spatula was used to detach each collagen construct from the edges of the culture well. Plates were then immediately scanned on a flat bed laser scanner once per 24 hours for a total of 4 days. The surface area of each collagen construct was measured using ImageJ (NIH) and standardized against the baseline surface area measurement to express changes in area as a percentage of original surface area.
The gentamicin concentrations assessed were delivered in a solution contained DMEM with 2% FBS, 1% penicillin/streptomycin and either 100, 250, 500, 750 or 100 μg/ml gentamicin (Sigma-Aldrich, CAT. NO: G1397). The ASA concentrations assessed were delivered in a solution of DMEM with 2% FBS, 1% penicillin/streptomycin and either 500, 1000 or 1500 μg/ml ASA (Sigma-Aldrich, CAT. NO: A5376). […]

[3] = tested on: human Tenon's capsule fibroblasts (HTCFs); test: Collagen Contraction Assay I (delayed release fibroblast populated collagen lattice); type: cell-based; details: gentamicin 1000 μg/ml and/or ASA 2000 μg/ml, 15 minutes twice daily, four day assay, vs vehicle control
Procedure: The delayed release fibroblast populated collagen lattice model was used to assess inhibition of gel contraction [58] by ASA and gentamicin. […] Cell free collagen lattices were prepared identically, however to isolate the effects of HTCFs alone on collagen, constructs without HTCFs were cast as a negative control. The cell-collagen solution was pipetted gently to ensure homogenous distribution of HTCFs while avoiding the production of air bubbles, then 500 ul were pipetted into each well of a 24-well tray. Collagen constructs were allowed to polymerize at 37 C for 45 minutes before adding low serum culture media containing DMEM, 2% Fetal Bovine Serum (FBS), 1% penicillin/streptomycin (P/S).
Tension was allowed to build up within the tethered matrix at 37 C and 5% CO2 for 72 hours before a sterile spatula was used to detach each collagen construct from the edges of the culture well. Plates were then immediately scanned on a flat bed laser scanner and then once per hour for the first 12 hours, then daily for a total of 4 days. The surface area of each collagen construct was measured using ImageJ (NIH) and standardized against the baseline surface area measurement to express changes in area as a percentage of original surface area.
Vehicle control treatment solution comprised of DMEM with 2% FBS and 1% penicillin/streptomycin. The gentamicin treatment solution contained DMEM with 2% FBS, 1% penicillin/streptomycin and 1000 μg/ml gentamicin (w/vol) (Sigma-Aldrich, CAT. NO: G1397). The ASA treatment solution contained DMEM with 2% FBS, 1% penicillin/streptomycin and 2000 μg/ml ASA (w/vol) (Sigma-Aldrich, CAT. NO: A5376). The gentamicin-ASA combination treatment solution (Gent+ASA) contained DMEM with 2% FBS, 1% penicillin/streptomycin, 1000 μg/ml gentamicin (w/vol.) and 2000 μg/ml ASA (w/vo).
Culture media was removed from collagen constructs twice daily and replaced with one of the four treatment solutions for a duration of 15 minutes. […]

[4] = tested on: HTCFs; test: Collagen Contraction Assay IV (AHGF induced, ASA and gentamicin vs mitomycin C); type: cell-based, human; details: ASA 1500 μg/ml and/or gentamicin 750 μg/ml; comparator mitomycin C 0.2 mg/ml for 4 minutes
Procedure: as §1
Tension was allowed to build up within the tethered matrix at 37 C and 5% CO2 for 72 hours before a sterile spatula was used to detach each collagen construct from the edges of the culture well. Plates were then immediately scanned on a flat bed laser scanner and then periodically for a total of 4 days. The surface area of each collagen construct was measured using ImageJ (NIH) and standardized against the baseline surface area measurement to express changes in area as a percentage of original surface area.
In this modification of the assay, AHGFs are added to all culture media the collagen constructs are exposed to—from casting of the collagen constructs to the conclusion of contraction. The experimental treatment solutions—all also containing AHGFs—were added 30 minutes prior to detaching the collagen constructs from the culture wells and remained until experimental conclusion. […] DMEM w/2% FBS was added for the remainder of the experiment).

[5] = tested on: HTCFs; test: Lipid Mediator Secretion Assay II (ASA or APHS with and without gentamicin, LC-MS/MS); type: cell-based, human; details: inflammatory cytokine induced HTCFs, gentamicin 250 or 500 μg/ml
Procedure: To this end, as before, multiple primary HTCF cell lines were cultured in DMEM w/10% FBS in 6-well culture plates, incubated at 37° C. and 5% CO2, until 90% confluent. The culture media was removed, wells washed with PBS, and then fresh DMEM w/0% FBS was added. After 24 hrs of serum starvation, fresh DMEM w/0% FBS was added, this time containing a physiologically relevant inflammation/wound healing induction mixture (1 ng/ml each of: IL-1b, TNFa, IFNγ, TGFb). After 12 hrs incubation, the induction media was removed, the wells were washed with PBS and fresh DMEM w/0% FBS was added containing one of ten experimental treatments for an incubation period of 48 hrs: 1) non-induced control (NIC: received DMEM w/0% FBS instead of the induction media), and 2) CytoM1+TGFB1 (DMEM w/0% FBS and 1 ng/ml each of: IL-1b, TNFa, IFNγ, TGFb), and 3) CytoM1/TGFB1/Gent250 (DMEM w/0% FBS, 1 ng/ml each of TGFB1, TGFB2, VEGF, CCN2 and 250 μg/ml gentamicin), and 4) CytoM1/TGFB1/Gent500 (DMEM w/0% FBS, 1 ng/ml each of TGFB1, TGFB2, VEGF, CCN2 and 500 μg/ml gentamicin), and 5) CytoM1/TGFB1/ASA500 (DMEM w/0% FBS, 1 ng/ml each of TGFB1, TGFB2, VEGF, CCN2, and 500 μg/ml ASA), and 6) CytoM1/TGFB1/ASA500/Gent250 (DMEM w/0% FBS, 1 ng/ml each of TGFB1, TGFB2, VEGF, CCN2, 500 μg/ml ASA and 250 μg/ml gentamicin), and 7) CytoM1/TGFB1/ASA1000 (DMEM w/0% FBS, 1 ng/ml each of TGFB1, TGFB2, VEGF, CCN2 and 1000 μg/ml ASA), and 8) CytoM1/TGFB1/ASA1000/Gent500 (DMEM w/0% FBS, 1 ng/ml each of TGFB1, TGFB2, VEGF, CCN2, 1000 μg/ml ASA, and 500 μg/ml gentamicin), and 9) CytoM1/TGFB1/APHS12 (DMEM w/0% FBS, 1 ng/ml each of TGFB1, TGFB2, VEGF, CCN2 and 12 μg/ml o-(acetoxyphenyl)hept-2-ynyl sulfide (APHS), and 10) CytoM1/TGFB1/APHS12/Gent250 (DMEM w/0% FBS, 1 ng/ml each of TGFB1, TGFB2, VEGF, CCN2, 12 μg/ml o-(acetoxyphenyl)hept-2-ynyl sulfide (APHS) and 250 μg/ml gentamicin). At 6, 12, 24 and 48 hrs after addition of the experimental treatments, 250 ul of supernatant was removed from each well, replaced with 250 ul of fresh DMEM w/0% FBS, and stored at −80° C. for subsequent LC-MS/MS analysis. After 48 hrs, the wells were washed with ice cold PBS three times and total cellular protein from the HTCF monolayer was collected for quantification and subsequent western blot analyses. The absolute quantity of protein within each culture well's HTCF monolayer was used as a means to standardize the relative secretion of lipid mediators by HTCFs into the culture well's supernatant.
This is a well-established method to determine the relative activity of cyclooxygenase, acetyl-COX2 and lipoxygenase biosynthetic pathways. In brief, the ratios of the integrated areas of the chromatographic peaks corresponding to each analyte and the integrated areas of the peaks corresponding to each analyte's internal standard (with known absolute quantity) are used to determine the relative quantity of each analyte in a given sample. After supernatant sample collection, 250 ul of methanol containing 100 μg of each deuterated internal standard was added. Samples were then vigorously vortexed and centrifuged at 10,000 g for 10 min before loading onto solid-phase extraction cartridges (Strata-X 33 um Polymeric Reversed Phase, 10 mg, Phenomenex 8B-S100-AAK), that were previously activated with 2 ml methanol and rinsed with 2 ml water. […] After washing with 5 ml water, extracts were eluted with 1 ml methanol. Solvent was then evaporated under vacuum in a SpeedVac centrifuge, and the extract was resuspended in 100 ul acetonitrile/water 60:40 (v/v). An aliquot of 20 ul was injected into the LC-MS/MS system for analysis. […] A Sciex Triple Quad 6500+ mass spectrometer with multiple reaction monitoring was used in negative ion mode. The chromatographic profile of the ion count for each m/z transition was monitored, and the area under the peaks (ion intensity vs elution time) was integrated using commercial software (MultiQuant, Sciex).

Molecule	AHGF-induced expression of αSMA ([1]; lipid mediator at 100 nM)	AHGF-induced expression of αSMA ([1]; lipid mediator at 1000 nM)	also measured
CCCCC/C=C\C/C=C\C/C=C\C=C\[C@@H](O)CCCC(=O)O [5-HETE, 5-hydroxyeicosatetraenoic acid]	significantly reduced	significantly reduced	–
CCCCC/C=C\C=C\C(O)C/C=C\C/C=C\CCCC(=O)O (stereo not shown) [11-HETE, 11-hydroxyeicosatetraenoic acid]	–	–	AHGF-induced αSMA expression ([1]; lipid mediator at 10, 100, or 1000 nM): did not significantly affect AHGF-induced αSMA expression
CCCCC[C@H](O)/C=C/C=C\C/C=C\C/C=C\CCCC(=O)O [15-HETE, 15-hydroxyeicosatetraenoic acid]	significantly reduced	–	–
CC/C=C\CC(O)/C=C/C=C\C/C=C\C/C=C\C/C=C\CCC(=O)O (stereo not shown) [17-OHDHA, 17-hydroxy-docosahexaenoic acid]	significantly reduced	significantly reduced	–
gentamicin	–	–	HTCF-mediated collagen contraction [2]: no significant treatment effects found; also recorded: no significant effect on HTCF-mediated collagen contraction; HTCF mediated collagen contraction [3]: did not affect collagen contraction until the second day of the four day assay; AHGF induced, HTCF-mediated collagen contraction [4]: no statistically significant effect on collagen contraction; secretion of PUFA precursors: AA, EPA and DHA [5]: significantly increase the secretion of PUFA precursors
